This passage reports GI50 and TGI results from PubChem BioAssay (NCI).

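Method: 48-hour compound exposure of cells in 96-well plates, five concentrations, linear interpolation of endpoints. At the GI50, growth is halved. TGI: concentration producing complete growth inhibition.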

Some test systems named below: ACHN renal; M14 melanoma; MOLT-4 leukemia; OVCAR-4 ovarian; OVCAR-8 ovarian; RPMI-8226 leukemia; SF-268 CNS; T-47D breast; TK-10 renal; UO-31 renal.
Common to all, as to assay: NCI tumour cell line growth inhibition, 48 h

On to `CCCc1ccc(S(=O)(=O)N[C@H]2CC[C@H]3[C@@H]4CCc5cc(O)ccc5[C@H]4CC[C@]23C)cc1`, for which the GI50 in the assay on ACHN renal was 2.57 µM; in the assay on M14 melanoma, 3.21 µM; in the assay on MOLT-4 leukemia it was 2.36 µM; in the assay with OVCAR-4 ovarian, 2.23 µM; in the assay with OVCAR-8 ovarian, 3.29 µM; with RPMI-8226 leukemia, 2.9 µM. Moreover, the GI50 in the assay on SF-268 CNS was 3.44 µM; in the assay with T-47D breast, 3.54 µM; in the assay with TK-10 renal it was 3.8 µM; in the assay on UO-31 renal it was 2.23 µM. The TGI in the assay with ACHN renal stood at 8.06 µM; in the assay on M14 melanoma it was 10.3 µM; in the assay with MOLT-4 leukemia it was 9.18 µM; in the assay with OVCAR-4 ovarian, 9.57 µM; with OVCAR-8 ovarian it was 13.1 µM; with RPMI-8226 leukemia, 10 µM. Also, the TGI in the assay on SF-268 CNS worked out at 13.4 µM; with T-47D breast, 10.8 µM; with TK-10 renal it was 13.7 µM; with UO-31 renal, 8.78 µM.
For `c1ccc2[nH]c(SSc3nc4ncncc4[nH]3)nc2c1`, the GI50 is 4.14 µM in the assay on ACHN renal; 0.347 µM in the assay with M14 melanoma; 0.486 µM with MOLT-4 leukemia; 3.64 µM with OVCAR-4 ovarian; 3.32 µM with OVCAR-8 ovarian; 0.709 µM with RPMI-8226 leukemia. The GI50 is 4.13 µM in the assay with SF-268 CNS, 0.489 µM in the assay on T-47D breast, 0.364 µM in the assay on TK-10 renal and 0.559 µM in the assay on UO-31 renal. The TGI in the assay on ACHN renal is more than 100 µM; in the assay on M14 melanoma, 82.1 µM; with MOLT-4 leukemia it was more than 100 µM; with OVCAR-4 ovarian, more than 100 µM; in the assay on OVCAR-8 ovarian it was more than 100 µM; in the assay with RPMI-8226 leukemia it was more than 100 µM. In addition, the TGI in the assay on SF-268 CNS was more than 100 µM; in the assay on T-47D breast it was 98.9 µM; in the assay on TK-10 renal, more than 37.3 µM; with UO-31 renal, more than 30.9 µM.
`CCCN=C1Nc2ccccc2[C@@H]2N(C)c3ccccc3C(C)C[C@]12C` (some centres undefined): the TGI came to 60.5 µM with ACHN renal; 33 µM with M14 melanoma; 45.7 µM with MOLT-4 leukemia; 23.4 µM with OVCAR-4 ovarian; 28.9 µM with OVCAR-8 ovarian; 41.7 µM in the assay on RPMI-8226 leukemia. For the same compound, the TGI was found to be 54.6 µM in the assay with SF-268 CNS, 49.6 µM with T-47D breast, 34.2 µM with TK-10 renal and 98.9 µM in the assay on UO-31 renal.
In the case of `CC1(C)NCCC[C@]2(C)[C@H]3C=CC4=C5C[C@](C)(CO)CC[C@]5(C)CC[C@@]4(C)[C@]3(C)CC[C@@H]12`, the GI50 in the assay on ACHN renal is 2.93 µM; in the assay on M14 melanoma it was 3.91 µM; with MOLT-4 leukemia it was 2.46 µM; with OVCAR-4 ovarian, 5.63 µM; in the assay with OVCAR-8 ovarian, 2.56 µM; in the assay with RPMI-8226 leukemia, 3.91 µM. For the same compound, the GI50 in the assay on SF-268 CNS is 3.27 µM; in the assay on T-47D breast it was 5.38 µM; in the assay with TK-10 renal, 2.66 µM; in the assay with UO-31 renal, 3.59 µM. The TGI worked out at 9.56 µM with ACHN renal; 14.8 µM in the assay on M14 melanoma; 6.8 µM in the assay with MOLT-4 leukemia; 20.8 µM with OVCAR-4 ovarian; 6.66 µM in the assay with OVCAR-8 ovarian; 14.9 µM in the assay with RPMI-8226 leukemia. Also, the TGI in the assay on SF-268 CNS came out at 11.6 µM; in the assay with T-47D breast, 20.9 µM; with TK-10 renal, 7.15 µM; with UO-31 renal, 15.7 µM.
For `O=[N+]([O-])c1ccc(-c2nc(N(CCO)CCO)c3ccccc3n2)o1`, the GI50 is 0.159 µM in the assay with ACHN renal; 0.143 µM in the assay on M14 melanoma; 0.508 µM with MOLT-4 leukemia; 0.208 µM in the assay on OVCAR-4 ovarian; 0.262 µM with OVCAR-8 ovarian; 0.567 µM in the assay with RPMI-8226 leukemia. The GI50 was 0.211 µM in the assay on SF-268 CNS, 0.319 µM in the assay with T-47D breast, 0.286 µM in the assay with TK-10 renal and 0.213 µM with UO-31 renal. Moreover, the TGI with ACHN renal was 0.631 µM; in the assay with M14 melanoma, 0.316 µM; in the assay on MOLT-4 leukemia, more than 38.9 µM; in the assay with OVCAR-4 ovarian, 1.8 µM; in the assay with OVCAR-8 ovarian, 2.88 µM; in the assay with RPMI-8226 leukemia, more than 21.3 µM. In addition, the figures for the TGI in the assay on SF-268 CNS, in the assay with T-47D breast and in the assay on UO-31 renal were 1.52 µM, 5.02 µM and 0.714 µM, respectively.
Consider `COc1ccc(CNc2nc3cc(N)cc(N)c3nc2-c2ccccc2)cc1OC`, for which the GI50 in the assay on ACHN renal was 14.4 µM; in the assay with M14 melanoma it was 8.56 µM; with MOLT-4 leukemia, 3.92 µM; in the assay on OVCAR-4 ovarian, 7.36 µM; in the assay on OVCAR-8 ovarian it was 10.5 µM; in the assay with RPMI-8226 leukemia, 3.14 µM. The GI50 was 16.6 µM with SF-268 CNS, 4.16 µM in the assay on T-47D breast, 16.8 µM in the assay with TK-10 renal and 15 µM in the assay on UO-31 renal. For the same compound, the TGI with ACHN renal was 32 µM; in the assay on M14 melanoma, 15.6 µM; with MOLT-4 leukemia, more than 100 µM; in the assay on OVCAR-4 ovarian, 26.5 µM; in the assay with OVCAR-8 ovarian, 32.1 µM; in the assay on RPMI-8226 leukemia, 13.5 µM. Moreover, the TGI in the assay on SF-268 CNS was 65.9 µM; with T-47D breast, more than 27.5 µM; with TK-10 renal, 32.8 µM; in the assay on UO-31 renal it was 40.7 µM.
For `OCC(O)C(O)C(O)C1SC(c2ccccc2)=NN1c1ccccc1` (centres undefined), the TGI in the assay with ACHN renal was more than 83 µM; in the assay on M14 melanoma it was more than 100 µM; with MOLT-4 leukemia, more than 100 µM; in the assay with OVCAR-4 ovarian it was more than 100 µM; in the assay on OVCAR-8 ovarian it was more than 100 µM; in the assay on RPMI-8226 leukemia it was more than 100 µM. In addition, the TGI in the assay with SF-268 CNS was more than 97.3 µM; in the assay with T-47D breast, more than 70.3 µM; with TK-10 renal, more than 95.7 µM; with UO-31 renal it was more than 100 µM.
Turning to `Fc1ccc(Oc2nccc(-c3c(-c4ccc(F)cc4)ncn3C3CCNCC3)n2)cc1`, the GI50 in the assay on ACHN renal, with M14 melanoma, in the assay on MOLT-4 leukemia, in the assay with OVCAR-4 ovarian, with OVCAR-8 ovarian and with RPMI-8226 leukemia was more than 25 µM throughout. Besides, the GI50 was more than 25 µM in the assay with SF-268 CNS, more than 18 µM in the assay on T-47D breast, more than 19.9 µM in the assay with TK-10 renal and 10.9 µM with UO-31 renal. The TGI in the assay on ACHN renal, in the assay on M14 melanoma, in the assay with MOLT-4 leukemia, in the assay on OVCAR-4 ovarian, in the assay with OVCAR-8 ovarian and with RPMI-8226 leukemia was more than 25 µM in each case. The TGI with SF-268 CNS, with T-47D breast, in the assay with TK-10 renal and in the assay on UO-31 renal was more than 25 µM throughout.
